ChEMBL document CHEMBL1122274, “Inhibitors of glycolic acid oxidase. 4-substituted 2,4-dioxobutanoic acid derivatives” (J Med Chem, 1983)

Key:
[1] = Acidic dissociation constant (pKa) determined in 50% aqueous ethanol;ND is defined as no-data.; format: physicochemical
[2] = Acidic dissociation constant (pKa) determined in 50% aqueous ethanol; format: physicochemical

O=C(O)C(=O)CC(=O)c1ccc(-c2ccccc2)cc1
pKa [1]: 3.34 | pKa [2]: 3.34
